Like-named read-outs stand apart in the source and are kept apart here.
Molecular target: T1, human PDE5, partially purified from human platelets (Homo sapiens, UniProt O76074)
T1 construct: human PDE5, partially purified from human platelets; from tissue; host or cells: human platelets
Test: PDE5 Assay (SPA, 3H-cGMP)
Format: biochemical
Procedure: 10 μL of each of these solutions is transferred to a selected well of a 96-well Optiplate microtitre plate (e.g., Packard). To determine total binding, 10 μL of aqueous 20% v/v DMSO is added to other selected wells. To determine non-specific binding, a 10 mM solution of sildenafil in 100% DMSO is diluted 20-fold with aqueous 20% v/v DMSO and 10 μL of the resulting solution is added to further selected wells of the Optiplate plate. […] (The PDE Assay Buffer is prepared by dissolving Tris-base (7.56 g) in water (800 mL), adding 1 M aqueous MgCl2 (10.325 mL) and 0.5 M EDTA (4.25 mL), adjusting the pH to 7.5 with 1N hydrochloric acid and making up to 1 L with water). A solution of human PDE5, partially purified from human platelets (11 μL, containing 0.017 units of PDE5 per mL, where 1 unit hydrolyses 1.0 μmole of 3′,5′-cyclic GMP to 5′-GMP per minute at pH 7.5 at 37° C.), in 20 mM Hepes, pH 7.4, 100 mM sodium chloride, 10% v/v glycerol, 1 mM benzamidine and 2 mM dithiotherietol, is diluted 200-fold, with Enzyme Buffer prepared by adding 0.5 M EDTA (2 mL) to a solution of Tris-Base (1.21 g) in water (800 mL), adjusting the pH to 7.5 with 1N HCl and making up to 1 L with water. The diluted PDE5 solution (10 μL) is added to all wells containing test compound, aqueous DMSO or sildenafil solution. The plate is incubated at room temperature for 1 hour. Fifty (50) μL of a suspension of 500 mg PDE Yttrium silicate SPA beads (e.g., Amersham) in 28 mL water is added to each of the wells and the plate is incubated for a further 20 minutes and then sealed using Top Seal-S (e.g., Packard) according to the manufacturer's instructions. The resulting scintillations are counted using a Canberra Packard Top Count (1 minute per well), as a measure of the extent to which binding of PDE5 to the beads is inhibited.

[1] = human platelet PDE5, 3H-cGMP, room temperature 1 hour, yttrium silicate SPA beads, read-out: IC50 (concentration of test compound at which 50% inhibition of PDE5 binding to the beads occurs)

Row | Structure (SMILES) | IC50 [nM] | IC50 [1] [nM]
1 | COc1cc2c(Cc3nc4c([nH]3)c(=O)n(C)c(=O)n4CC(C)C)cnc(C)c2cc1OC [Example 7, 8-(6,7-dimethoxy-1-methyl-isoquinolin-4-ylmethyl)-3-isobutyl-1-methyl-3,7-dihydro-purine-2,6-dione] | 7 | –
2 | COc1cc2cncc(Cc3nc4c([nH]3)c(=O)n(C)c(=O)n4CC(C)C)c2cc1OC [Example 10, 8-(6,7-dimethoxy-isoquinolin-4-ylmethyl)-3-isobutyl-1-methyl-3,7-dihydro-purine-2,6-dione] | 10 | –
3 | COc1cc2cncc(Cc3nc4c([nH]3)c(=O)n(C)c(=O)n4CC(C)(C)C)c2cc1OC [Example 15] | 6 | –
4 | COc1cc2c(Cc3nc4c([nH]3)c(=O)n(C)c(=O)n4CC(C)C)cnc(Cl)c2cc1OC [Example 35, 8-(1-chloro-6,7-dimethoxy-isoquinolin-4-ylmethyl)-3-isobutyl-1-methyl-3,7-dihydro-purine-2,6-dione] | – | 10
5 | COc1ccc2cncc(Cc3nc4c([nH]3)c(=O)n(C)c(=O)n4CC(C)C)c2c1 [Example 45, 3-isobutyl-8-(6-methoxy-isoquinolin-4-ylmethyl)-1-methyl-3,7-dihydro-purine-2,6-dione] | 2 | –
6 | COc1ccc2cncc(Cc3nc4c([nH]3)c(=O)n(C)c(=O)n4CC3CC3)c2c1 [Example 49] | – | 3.7
7 | C#Cc1ccc2cncc(Cc3nc4c([nH]3)c(=O)n(C)c(=O)n4CC(C)C)c2c1 [Example 55, 8-(6-ethynyl-isoquinolin-4-ylmethyl)-3-isobutyl-1-methyl-3,7-dihydro-purine-2,6-dione] | – | 5.5
8 | COc1cc2cncc(Cc3nc4c([nH]3)c(=O)n(C)c(=O)n4Cc3ccc(NS(=O)(=O)N(C)C)cc3)c2cc1OC [Example 60] | – | 2.8
9 | COc1cc2cncc(Cc3nc4c([nH]3)c(=O)n(C)c(=O)n4CC(C)CO)c2cc1OC (stereo not shown) [Example 68, 8-(6,7-dimethoxy-isoquinolin-4-ylmethyl)-3-(3-hydroxy-2-methyl-propyl)-1-methyl-3,7-dihydro-purine-2,6-dione] | 7 | –
10 | COc1cc2cncc(Cc3nc4c(=O)n(C)c(=O)n(CC5(C)CC5)c4[nH]3)c2cc1OC [Example 70, 8-(6,7-dimethoxy-isoquinolin-4-ylmethyl)-1-methyl-3-(1-methyl-cyclopropylmethyl)-3,9-dihydro-purine-2,6-dione] | – | 9

Source: patent US20030114469A1, “Combinations” (priority 2001, published 2003)
